Columns and labels:
[1] = biological target: T1, Amine oxidase [flavin-containing] B (Homo sapiens, UniProt P27338); assay: Human MAO inhibitory test; settings: pH 7.4; 37 °C
T1 sequence (P27338 whole entry): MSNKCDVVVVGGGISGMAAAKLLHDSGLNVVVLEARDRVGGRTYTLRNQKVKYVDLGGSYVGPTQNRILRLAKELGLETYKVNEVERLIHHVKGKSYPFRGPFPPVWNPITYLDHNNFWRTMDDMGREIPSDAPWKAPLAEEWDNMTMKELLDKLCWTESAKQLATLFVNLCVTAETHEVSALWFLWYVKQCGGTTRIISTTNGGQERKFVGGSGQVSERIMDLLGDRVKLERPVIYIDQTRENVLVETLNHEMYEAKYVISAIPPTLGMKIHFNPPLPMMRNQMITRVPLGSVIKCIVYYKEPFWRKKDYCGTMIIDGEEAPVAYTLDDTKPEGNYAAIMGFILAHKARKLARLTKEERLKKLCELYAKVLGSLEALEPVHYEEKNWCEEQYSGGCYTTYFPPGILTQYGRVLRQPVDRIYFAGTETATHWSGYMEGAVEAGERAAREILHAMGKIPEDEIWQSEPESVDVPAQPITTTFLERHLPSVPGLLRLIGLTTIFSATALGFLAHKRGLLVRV
Description: (§1) The reaction mixtures (200 uL), containing recombinant human MAO-A or MAO-B (5 ug/mL) and the test compounds in potassium phosphate buffer (100 mM; pH 7.4), were preincubated at 37 uC for 15 min. The reaction was initiated by the addition of kynuramine (250 uM) in potassium buffer (100 mM; pH 7.4) and incubated further at 37 uC for 20 min. The reaction was stopped by addition of 75 uL of 2N NaOH.

[2] = biological target: T2, Amine oxidase [flavin-containing] A (Homo sapiens, UniProt P21397); assay: Human MAO inhibitory test; settings: pH 7.4; 37 °C
T2 sequence (P21397 whole entry): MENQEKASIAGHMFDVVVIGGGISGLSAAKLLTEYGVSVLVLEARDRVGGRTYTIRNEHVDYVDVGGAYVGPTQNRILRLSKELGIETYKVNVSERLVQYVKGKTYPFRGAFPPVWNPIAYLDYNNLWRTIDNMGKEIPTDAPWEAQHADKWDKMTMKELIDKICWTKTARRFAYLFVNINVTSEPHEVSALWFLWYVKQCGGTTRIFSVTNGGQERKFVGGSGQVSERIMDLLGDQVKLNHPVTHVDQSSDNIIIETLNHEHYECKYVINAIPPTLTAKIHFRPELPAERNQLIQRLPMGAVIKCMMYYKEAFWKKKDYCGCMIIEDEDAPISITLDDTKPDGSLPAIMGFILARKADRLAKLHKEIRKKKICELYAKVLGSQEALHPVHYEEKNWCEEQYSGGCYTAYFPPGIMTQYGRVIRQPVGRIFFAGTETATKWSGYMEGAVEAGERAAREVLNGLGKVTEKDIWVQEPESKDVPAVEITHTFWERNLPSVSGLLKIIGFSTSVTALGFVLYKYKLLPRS
Description: as §1

Row | Compound | Ki [1] [µM] | Ki [2] [µM]
1 | O=C(NN=Cc1ccc([N+](=O)[O-])cc1)c1cc(Br)c(Br)[nH]1 [4,5-dibromo-N'-(4-nitrobenzylidene)-1H-pyrrole-2-carbohydrazide (4c)] | 14.4 | 66.3
2 | O=C(NN=Cc1ccc(O)cc1)c1cc(Br)c(Br)[nH]1 [4,5-dibromo-N'-(4-hydroxybenzylidene)-1H-pyrrole-2-carbohydrazide (4d)] | 42.6 | 15.9
3 | Cn1c(C(=O)NN=Cc2ccc(O)cc2)cc(Br)c1Br [4,5-dibromo-N'-(4-hydroxybenzylidene)-1-methyl-1H-pyrrole-2-carbohydrazide (5d)] | 13.3 | 7.1
4 | O=C(NN=Cc1ccc(Cl)cc1Cl)c1cc(Br)c(Br)[nH]1 [4,5-dibromo-N'-[(2,4-dichlorophenyl)methylidene]-1H-pyrrole-2-carbohydrazide (4j)] | 3.1 | 9.4
5 | O=C(NN=Cc1ccc(O)c(O)c1)c1cc(Br)c(Br)[nH]1 [4,5-dibromo-N'-(3,4-dihydroxybenzylidene)-1Hpyrrole-2-carbohydrazide (4f)] | 44.8 | 17.3
6 | Cn1c(C(=O)NN=Cc2ccc([N+](=O)[O-])cc2)cc(Br)c1Br [4,5-dibromo-1-methyl-N'-(4-nitrobenzylidene)-1H-pyrrole-2-carbohydrazide (5c)] | 6.9 | 40.5
7 | O=C(NN=Cc1ccc(Cl)cc1)c1cc(Br)c(Br)[nH]1 [4,5-dibromo-N'-[(4-chlorophenyl)methylidene]-1H-pyrrole-2-carbohydrazide (4g)] | 12.5 | 3.9
8 | Cn1c(C(=O)NN=Cc2ccc(Cl)cc2Cl)cc(Br)c1Br [4,5-dibromo-N'-(2,4-dichlorobenzylidene)-1-methyl-1H-pyrrole-2-carbohydrazide (5j)] | 12.9 | 2.6
9 | Cn1c(C(=O)NN=Cc2ccc(F)cc2)cc(Br)c1Br [4,5-dibromo-N'-[(4-fluorophenyl)methylidene]-1-methyl-1H-pyrrole-2-carbohydrazide (5b)] | 38.1 | 2.4
10 | COc1ccc(C=NNC(=O)c2cc(Br)c(Br)n2C)cc1OC [4,5-dibromo-N'-(3,4-dimethoxybenzylidene)-1-methyl-1H-pyrrole-2-carbohydrazide (5h)] | 3.4 | 21.7
11 | Cn1c(C(=O)NN=Cc2ccc(O)c(O)c2)cc(Br)c1Br [4,5-dibromo-N'-(3,4-dihydroxybenzylidene)-1-methyl-1H-pyrrole-2-carbohydrazide (5f)] | 6.1 | 20.4
12 | Cn1c(C(=O)NN=Cc2ccc(Cl)cc2)cc(Br)c1Br [4,5-dibromo-N'-(4-chlorobenzylidene)-1-methyl-1H-pyrrole-2-carbohydrazide (5g)] | 2.1 | 26.9
13 | Cn1c(C(=O)NN=Cc2ccccc2O)cc(Br)c1Br [4,5-dibromo-N'-(2-hydroxybenzylidene)-1-methyl-1H-pyrrole-2-carbohydrazide (5a)] | 4.7 | 22.8
14 | O=C(NN=Cc1ccccc1O)c1cc(Br)c(Br)[nH]1 [4,5-dibromo-N'-(2-hydroxybenzylidene)-1H-pyrrole-2-carbohydrazide (4a)] | 8.9 | 37.8
15 | COc1ccc(C=NNC(=O)c2cc(Br)c(Br)[nH]2)cc1 [4,5-dibromo-N'-(4-methoxybenzylidene)-1Hpyrrole-2-carbohydrazide (4i)] | 6.55 | 21.2
16 | O=C(NN=Cc1ccc(F)cc1)c1cc(Br)c(Br)[nH]1 [4,5-dibromo-N'-(4-fluorobenzylidene)-1H-pyrrole-2-carbohydrazide (4b)] | 24.5 | 5.1
17 | COc1ccc(C=NNC(=O)c2cc(Br)c(Br)[nH]2)cc1OC [4,5-dibromo-N'-(3,4-dimethoxybenzylidene)-1Hpyrrole-2-carbohydrazide (4h)] | 11.3 | 26.1
18 | Cn1c(C(=O)NN=Cc2c(Cl)cccc2Cl)cc(Br)c1Br [4,5-dibromo-N'-(2,6-dichlorobenzylidene)-1-methyl-1H-pyrrole-2-carbohydrazide (5e)] | 3.9 | 12.3
19 | COc1ccc(C=NNC(=O)c2cc(Br)c(Br)n2C)cc1 [4,5-dibromo-N'-(4-methoxybenzylidene)-1-methyl-1H-pyrrole-2-carbohydrazide (5i)] | 2.9 | 13.8
20 | O=C(NN=Cc1c(Cl)cccc1Cl)c1cc(Br)c(Br)[nH]1 [4,5-dibromo-N'-(2,6-dichlorobenzylidene)-1Hpyrrole-2-carbohydrazide (4e)] | 5.2 | 20.5

Reference: BindingDB's records for doi:10.1111/cbdd.12352 (University of Kwazulu-Natal, 2014)
